Laboratory results reported in article PMC4955970, “Stable, synthetic analogs of diadenosine tetraphosphate inhibit rat and human P2X3 receptors and inflammatory pain” (Molecular Pain, 2016).
Read-outs that look alike come from different tables or passages of the source.

Key:
[1] = target: T1, native P2X3Rs in TG neurons (Rattus norvegicus, UniProt P49654); experiment: Whole-cell recording of α,β-meATP currents in cultured trigeminal ganglion (TG) neurons; type: cell-based; conditions: read-out: inhibition of peak currents in TG neurons
T1 construct: endogenous in cells; host or cells: cultured rat trigeminal ganglion (TG) or dorsal root ganglion (DRG) neurons
T1 sequence (P49654 1-397): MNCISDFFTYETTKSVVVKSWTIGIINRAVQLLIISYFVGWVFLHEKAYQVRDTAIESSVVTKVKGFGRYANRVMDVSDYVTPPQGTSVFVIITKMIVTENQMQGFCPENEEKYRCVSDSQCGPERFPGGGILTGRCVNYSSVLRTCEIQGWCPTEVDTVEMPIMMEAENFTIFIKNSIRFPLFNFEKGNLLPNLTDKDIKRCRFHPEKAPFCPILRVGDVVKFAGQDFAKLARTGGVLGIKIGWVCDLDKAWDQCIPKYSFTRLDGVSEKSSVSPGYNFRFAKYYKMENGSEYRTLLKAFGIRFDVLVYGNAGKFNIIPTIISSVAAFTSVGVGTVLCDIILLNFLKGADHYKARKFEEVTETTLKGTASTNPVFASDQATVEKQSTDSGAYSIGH
Procedure: (§1) Rat trigeminal, nodose, or dorsal root ganglion (TG, NG, and DRG, respectivley) neurons in culture were prepared as described previously.[46],[47] Neurons were plated on poly-L-lysine (0.2 mg/ml)-coated Petri dishes and cultured for one to two days under an atmosphere containing 5% CO2. Cells were used within two days of plating when they lacked processes. HEK293T cells were prepared as reported previously[32],[48] and transfected with rat or human full-length P2X3 cDNA subcloned into pIRES2-EGFP (Clontech, Mountain View, CA, USA).
(§2) TG, NG, DRG, or HEK cells were recorded in the whole-cell configuration while being continuously superfused (at 2 ml/min) with control solution containing (in mM): 152 NaCl, 5 KCl, 1 MgCl2, 2 CaCl2, 10 glucose, and 10 HEPES; pH was adjusted to 7.4 with NaOH and osmolarity was adjusted to 320 mOsM with glucose. […] Responses to selective P2X3R agonist α,β-methylene-ATP (α,β-meATP; resistant to ectoATPase hydrolysis, Sigma-Aldrich) were measured using an EPC-9 amplifier operated by HEKA Patch Master software (HEKA Electronik, Germany). Cells were voltage-clamped at −70 mV. In most cells, series resistance was compensated by 80%. To determine EC50 values, dose-response curves were constructed for α,β-meATP by administering different agonist doses same cells and fitting data to a logistic equation (Origin 8.0, Microcal, Northampton, MA). […]

[2] = target: T2, native P2X3Rs in TG neurons (Rattus norvegicus, UniProt P49654); experiment: as above; type: cell-based; conditions: read-out: inhibition of sustained residual component in TG neurons
T2 construct: endogenous in cells; host or cells: cultured rat trigeminal ganglion (TG) or dorsal root ganglion (DRG) neurons
T2 sequence (P49654 1-397): T1 sequence (P49654 1-397)
T2 sequence (P49653 1-472 partner): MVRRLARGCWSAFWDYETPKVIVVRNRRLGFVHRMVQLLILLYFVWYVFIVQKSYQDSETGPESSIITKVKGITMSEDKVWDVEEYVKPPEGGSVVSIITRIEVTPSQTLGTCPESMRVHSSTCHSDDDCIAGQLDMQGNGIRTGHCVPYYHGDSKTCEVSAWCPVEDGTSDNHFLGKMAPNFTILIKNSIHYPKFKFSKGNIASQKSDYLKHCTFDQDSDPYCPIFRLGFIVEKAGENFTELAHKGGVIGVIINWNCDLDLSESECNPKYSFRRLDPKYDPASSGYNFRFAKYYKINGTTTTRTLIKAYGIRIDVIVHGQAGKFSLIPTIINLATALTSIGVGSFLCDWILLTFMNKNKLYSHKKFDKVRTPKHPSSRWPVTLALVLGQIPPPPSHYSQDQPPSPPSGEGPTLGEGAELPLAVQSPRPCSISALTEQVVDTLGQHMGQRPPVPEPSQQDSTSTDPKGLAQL
Procedure: as §1, §2

inhibition at 1 µM [1]: 80.3 ± 4.4%
inhibition at 1 µM [2]: 15 ± 6%
Structure (SMILES): Nc1ncnc2c1ncn2[C@@H]1O[C@H](COP(=O)(O)OP(=O)(O)NP(=O)(O)OP(=O)(O)OC[C@H]2O[C@@H](n3cnc4c(N)ncnc43)[C@H](O)[C@@H]2O)[C@@H](O)[C@H]1O [AppNHppA, diadenosine 5′,5′′′-P^1,P^4-(β,γ-imido)tetraphosphate]
